{
  "source": "PubChem BioAssay (NCI)",
  "test_in_all_cases": "inhibition of tumour cell growth, NCI panel, 384-well format",
  "key": {"MOLT-4 leukemia": {"tested_on": "MOLT-4 leukemia"}, "SR leukemia": {"tested_on": "SR leukemia"}, "NCI/ADR-RES ovarian": {"tested_on": "NCI/ADR-RES ovarian"}, "NCI-H23 lung": {"tested_on": "NCI-H23 lung"}, "T-47D breast": {"tested_on": "T-47D breast"}, "SF-539 CNS": {"tested_on": "SF-539 CNS"}, "TK-10 renal": {"tested_on": "TK-10 renal"}, "SF-268 CNS": {"tested_on": "SF-268 CNS"}, "U251 glioblastoma": {"tested_on": "U251 glioblastoma"}, "UACC-257 melanoma": {"tested_on": "UACC-257 melanoma"}, "K-562 leukemia": {"tested_on": "K-562 leukemia"}, "HCT-116 colon": {"tested_on": "HCT-116 colon"}, "MDA-MB-468 breast": {"tested_on": "MDA-MB-468 breast"}},
  "note": "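GI50 = concentration required for 50% inhibition of growth. TGI: concentration producing complete growth inhibition.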",
  "data": [
    {"smiles": "C=CCN(/C=C1\\C(=O)O[C@H](COC)[C@@]2(C)C1=C(O)C(=O)C1=C2[C@H](OC(C)=O)C[C@]2(C)C(=O)CC[C@@H]12)CC=C", "values": [
      {"measurement": "GI50", "setting": "MOLT-4 leukemia", "result": 0.333, "unit": "µM"},
      {"measurement": "TGI", "setting": "MOLT-4 leukemia", "result": 2.02, "unit": "µM"},
      {"measurement": "GI50", "setting": "SR leukemia", "result": 1.22, "unit": "µM"},
      {"measurement": "TGI", "setting": "SR leukemia", "result": 2.51, "unit": "µM"},
      {"measurement": "GI50", "setting": "NCI/ADR-RES ovarian", "result": 8.83, "unit": "µM"},
      {"measurement": "TGI", "setting": "NCI/ADR-RES ovarian", "result": "> 100", "unit": "µM"},
      {"measurement": "GI50", "setting": "NCI-H23 lung", "result": 4.35, "unit": "µM"},
      {"measurement": "TGI", "setting": "NCI-H23 lung", "result": 33.8, "unit": "µM"},
      {"measurement": "GI50", "setting": "T-47D breast", "result": 0.724, "unit": "µM"},
      {"measurement": "TGI", "setting": "T-47D breast", "result": 10.2, "unit": "µM"},
      {"measurement": "GI50", "setting": "SF-539 CNS", "result": 7.45, "unit": "µM"},
      {"measurement": "TGI", "setting": "SF-539 CNS", "result": "> 100", "unit": "µM"},
      {"measurement": "GI50", "setting": "TK-10 renal", "result": 1.19, "unit": "µM"},
      {"measurement": "TGI", "setting": "TK-10 renal", "result": 15.2, "unit": "µM"},
      {"measurement": "GI50", "setting": "SF-268 CNS", "result": 1.82, "unit": "µM"},
      {"measurement": "TGI", "setting": "SF-268 CNS", "result": 19.9, "unit": "µM"},
      {"measurement": "GI50", "setting": "U251 glioblastoma", "result": 13, "unit": "µM"},
      {"measurement": "TGI", "setting": "U251 glioblastoma", "result": 82.7, "unit": "µM"},
      {"measurement": "GI50", "setting": "UACC-257 melanoma", "result": 4.01, "unit": "µM"},
      {"measurement": "TGI", "setting": "UACC-257 melanoma", "result": 43.9, "unit": "µM"},
      {"measurement": "GI50", "setting": "K-562 leukemia", "result": 17.6, "unit": "µM"},
      {"measurement": "TGI", "setting": "K-562 leukemia", "result": "> 100", "unit": "µM"},
      {"measurement": "GI50", "setting": "HCT-116 colon", "result": 4.61, "unit": "µM"},
      {"measurement": "TGI", "setting": "HCT-116 colon", "result": 31.4, "unit": "µM"},
      {"measurement": "GI50", "setting": "MDA-MB-468 breast", "result": 0.0764, "unit": "µM"},
      {"measurement": "TGI", "setting": "MDA-MB-468 breast", "result": 2.09, "unit": "µM"}
    ]}
  ]
}
